Experimental data as given in US20230277449A1, “ORAL CAVITY POLYMERIC DELIVERY SYSTEMS” (YISSUM RESEARCH DEVELOPMENT COMPANY OF THE HEBREW …, priority 2020, published 2023).
In brackets after ≈: the same amount, converted by molar mass.

Experiments:
[1] = Intravenous administration of APO to rats; format: in vivo; conditions: male, Wistar, rat, plasma, 2.0 mg/kg IV
[2] = cited from earlier work
[3] = Simulation to human plasma levels from ex-vivo Papp
[4] = Ex-vivo - in-vivo correlation (Jss and Css calculated from Papp for pig)
[5] = In-vivo permeability study on rats (buccal administration)
[6] = Simulation of the results in pig to human setup; conditions: same ABPD conditions, CL difference, Eq. 2
[7] = IV administration of APO to pigs, pharmacokinetics; conditions: female, pig, plasma, 1 mg/kg
in vivo = conditions: pig
Text: 2.1.1 HPMC-based core ABPD preparation: All polymers were sieved through a 50-mesh sieve prior to their use.
The dispersion was slowly cooled with constant vigorous stirring to room temperature to obtain a solid. This solid was introduced into 8 mm flat-faced punch and die set. […] The diameter of the core was changed to 10.5 mm due to compression.
DDW and vigorously stirred until full dissolution to homogenous solution. The pH of the solution was adjusted to 5.9 by H3PO4 and KOH. The solution was cooled at room temperature for 10 min with continuous stirring.
2.1.8 In-vivo protocol of buccal administration: Following full recovery of 1 week, these (and additional) pigs underwent experiments with administration of buccal devices. The preparation of pigs for the experiments were done as previously described. Pigs were positioned on their left side. Inner side of the left cheek was gently cleaned with a gauze. […] The liquefied core was carefully collected and stored at -80° C. […] Cheeks were excised. […] The other half was fixated in 4% formaldehyde and stored for at least a month. Afterwards, these samples were trimmed, embedded in paraffin and sectioned. They were stained with Hematoxilyn and Eosin and underwent a histopathological examination. As a first step, each of the first 3 pigs received a different ABPD (as previously described): hydroxypropyl methylcellulose (HPMC) - based core, witepsol H15 - based core, or hydrogel - based core. After results evaluation, 3 additional pigs received hydrogel -based core ABPDs. Lastly, 1 pig received a hydrogel-based core ABPD with modified parameters.
The tubes were vigorously shaken for approximately 20 h. […] The supernatant was transferred to a clean tube, to which 0.3 ml of 1M NaOH and 0.7 ml 0.2 M Na2HPO4 were added. The tubes were vortex-mixed for 2 min. The pH was adjusted to 7 - 9 by NaOH and HCl. […] The supernatant was transferred to a clean tube and evaporated to dryness under vacuum. 3 ml of 0.1 M HCl were added to the tissue once again and vigorously shaken for 20 min. Afterwards, the tissue underwent the same procedure one more time with supernatant collected to respective tubes as previously. […] Samples were 2000-fold diluted in the reconstitution diluent and injected into LC-MS-MS system.
Following this analysis PK parameters were obtained.

[8] = APO release from hydrogel-based core through dialysis bag; format: physicochemical; conditions: 20 mg APO in 0.5 ml hydrogel pH 5.9, dialysis bag
Protocol: DDW. 100.0, 120.0 or 150 mg fish gelatin were added. No gelatin was added to the fourth group. All work was done in triplicates. After vigorous stirring full dissolution to homogenous solution was achieved. The pH of the solutions was adjusted to 5.9 by H3PO4 and KOH. 0.5 ml of each solution was introduced into dialysis bag (Specta/PorⓇDialysis membrane, MWCO 25000, flat width 12 mm). The bags were submerged into a beaker with 100 ml 0.1% ascorbic acid solution adjusted to pH 5.9 by NaOH and HCl. The solutions were held at 34° C. (±1) with constant stirring. 100 µl samples were taken at time points 0, 10, 25, 40, 60, 90, 120, 150 and 180 min into a vial containing 1 µl of 10%^v/v mercaptoethanol ethanolic solution. 100 µl of fresh receiving solution was added to the beaker to retain sink conditions. […]
2.1.4 Chromatographic analysis of in-vitro samples: The samples were injected into Waters 2695 Separation Module HPLC system coupled with Waters 2475 Multi Gamma Fluorescence Detector (Waters Co., MA, USA), into BDS Hypersil Cyano (Phenomenex, CA, USA) column (5 µm, 100 Å, 250 mm × 4.6 mm) protected by Hypersil Cyano (Phenomenex, CA, USA) pre-column (5 µm, 4 mm × 10 mm). […] Linearity curve (2.5-250 µg/ml, R^2>0.997) was performed before the batch of samples and used for quantification.

[9] = Physicochemical properties stated in the text (log P, pKa, solubility); conditions: gelatin hydrogel, aqueous with cosolvent or surfactant or cyclodextrin, read-out: solubility in buffered hydrogel
[10] = Monitored vital parameters after IV APO in pigs; format: in vivo, pig; conditions: 1 mg/kg IV APO, mean (lowest - highest)
Text: Pigs were fasted overnight before the experiments. […] Pigs were positioned on their back.

clearance [1]: 153 mL/min/kg
Vd ([1]; read-out: volume of distribution): 3.3 L/kg
Jss calculated (mg/(cm^2*h)) ([3]; 1:1 ethanol: propylene glycol, 20 mg/ml): 0.84 mg/(cm^2*h)
Jss calculated (mg/(cm^2*h)) ([3]; pH 5.9, 20 mg/ml): 0.04 mg/(cm^2*h)
Jss calculated (mg/(cm^2*h)) ([3]; pH 7.4, 20 mg/ml): 0.22 mg/(cm^2*h)
ex-vivo predicted Css lower than in-vivo Css [4]: 4 times
Jss calculated ([4]; pH 5.9, 40 mg/ml APO in hydrogel, Eq. 3): 0.073 mg/(cm^2*h)
Css calculated from ex-vivo Papp ([4]; pig of 43 kg, 4.74 cm^2, Eq. 2): 0.59 ng/mL
APO in the plasma ([5]; buccal solution, three anesthetized rats, 8 h): not detected
APO concentration in the solution inside the delivery device at 8 h vs initial ([5]; rats): did not change
Css simulated for 70 kg human [6]: 4 to 6 ng/mL
AUC(0-inf) [7]: 107 ng·h/mL
Vd [7]: 6.6 L/kg
clearance [7]: 218 mL/min/kg
Cmax after removal smaller than with the four pigs (in vivo): 2 fold
Cmax of the peak higher than Css (in vivo): 4 fold
time of Cmax (in vivo): 8.7 h
time of the peak after ABPD removal (in vivo): about 45 min
Css experimentally obtained (in vivo; 1.37 mg/kg): 2.15 (±0.44) ng/ml
theoretical Css predicted (in vivo; 1.37 mg/kg): 2.24 ng/mL
AUC (in vivo; 2 mg/kg): 32.8 ng·h/mL
AUC(0-inf) (in vivo; 2 mg/kg): 50.7 ng·h/mL
Cmax (in vivo; 2 mg/kg): 9.7 ng/mL
time at which all APO dose was released [8]: 1.5 h
solubility [9]: 40 mg/mL (≈ 150 mM)
Diastolic blood press (mmHg) [10]: 43.1 (32 - 55) mmHg
O2 saturation (%) [10]: 97.7 (95 - 100) %
Respiration rate kept at (min^-1) [10]: 12.2 (11- 13) min^-1
Systolic blood press (mmHg) [10]: 81.7 (72 - 101) mmHg
Rectal temp (°C) ([10]; four pigs): 38.2 (37.4 - 39.4) °C
SMILES: CN1CCc2cccc3c2[C@H]1Cc1ccc(O)c(O)c1-3 [APO, apomorphine]
log P [2]: 2.0
Heart rate (beats/min) [10]: 95.2 (74 - 120) beats/min
